Data on five molecules can be found in US11912723B2, “KRAS modulators and uses thereof” (Quanta Therapeutics, Inc., priority 2022, dated 2024).

Holding throughout (format): binding
Assay [1] concerns the target T1, KRAS G12D/RAF1 (Homo sapiens, UniProt P01116, G12D).
T1 construct: KRAS (1-169) proteins were expressed in E. coli at 18° C; His6-MBP (N, cleaved yes); made in house; host or cells: E. coli
The experiment in a line: Protein-protein interaction (PPI) HTRF assay KRAS G12D/RAF1. The conditions noted are these: KRAS G12D/RAF1, GppNHp-loaded KRAS; 30 minutes pre-incubation. The method, boiled down: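 IC50 values come from the 665/615 HTRF ratio, scaled between no-compound (0% inhibition) and untagged RAF1 (100%). GppNHp-exchanged, biotinylated RAS (1-169) solution at 16 nM met compound for 30 min at room temperature. Then 16 nM His-tagged RAF1 (52-131) donor solution was added and incubated 1 h.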

Assay [2] has as its target T2, KRAS G12V/RAF1 (Homo sapiens, UniProt P01116, G12V).
T2 construct: KRAS (1-169) proteins were expressed in E. coli at 18° C; His6-MBP (N, cleaved yes); made in house; host or cells: E. coli
The experiment in a line: Protein-protein interaction (PPI) HTRF assay KRAS G12V/RAF1. The conditions noted are these: KRASG12V/RAF1. As to the method:
(§1) Biotinylated KRAS wt and KRAS G12DNV proteins were expressed and purified in conditions similar to those previously reported (Tran, et al., 2021) (Zhang, et al., 2020). Briefly, KRAS (1-169) proteins were expressed in E. coli at 18° C. with an upstream TEV cleavage site (ENLFYQS) followed an Avi tag sequence ([…]). KIRAS expression constructs contained both a His6 and maltose-binding protein (MBP) tags at the N-terminus for Ni-NTA column purification prior to overnight TEV cleavage and MBP column purification. The avi-tagged NRAS expression construct contained both a His6 tag and SUMO cleavage sige at the N-terminus for Ni-NTA column purification followed by His-ULP1 digestion overnight. All avi-tagged RAS proteins were dialyzed into buffer containing ATP, biotin, and BirA followed by purification over a second Ni-NTA column and then run over a size exclusion HiLoad™ 26/600 Superdex™ column in 20 mM HEPES, pH 7.5, 300 mM NaCl, 5 mM MgCl2, and 1 mM TCEP. Fractions containing the protein of interest were pooled, concentrated, and confirmed by intact mass spectrometry. To prepare ‘GTP’ loaded KRAS and NRAS, biotinylated KRAS or NRAS was nucleotide exchanged from GDP-bound protein to GppNHp-bound (Jena Biosciences, NU-401-50) protein in the presence of alkaline phosphatase and excess GppNHp as previously described and the resulting nucleotide content was confirmed by HPLC reverse phase analytical chromatography (Donohue, et al., 2019) (Tran, et al., 2021).
(§2) His-tagged RAF1 (52-131) was similarly expressed in E. coli at 18° C. overnight with an upstream TEV cleavage site. His-tagged RAF1 expression construct contained both a His6 and MBP tags at the N-terminus for Ni-NTA column purification followed by MBP-tagged TEV digestion overnight. RAF1 protein samples were further purified over a MBP column followed by a Ni-NTA column and a second MBP column. The fractions containing the protein of interest were pooled, concentrated, and further purified over a HiLoad™ 16/600 Superdex™ 75 pg size exclusion column into 20 mM HEPES, pH8.0, 200 mM NaCl, 5 mM TCEP.
(§3) When RAS proteins are in the active GTP-bound conformation, they bind the effector protein RAF1 at the N-terminus Ras-binding domain (RBD, residues 52-131) (Tran, et al., 2021). Homogenous time resolved fluorescence (HTRF) was used to monitor the interaction between wt or mutant KRAS and RAF1 or wt NRAS and RAFT. Compounds were assayed in the presence of KRAS G12D/V and RAF1 versus wt KRAS to assess activity against mutant and w.t. KRAS. Similarly, compounds were then assayed in the presence of w.t. NRAS and RAF1 to assess RAS isoform selectivity. In all assay formats, His-tagged RAF1 protein was incubated with the HTRF donor, anti-6His Tb Cryptate gold (Cisbio 61DB10RDF), and biotinylated RAS proteins were incubated with the HTRF acceptor, streptavidin-d2 (CisBio 610SADLA). The intensity of the fluorescence signal emitted is proportional to binding between the two proteins. The donor solution was prepared by mixing 16 nM His-tagged RAF1 in protein dilution buffer with 1:100 anti-6His Tb cryptate in PPI-Terbium detection buffer. 16 nM biotinylated RAS protein was diluted into protein dilution buffer (50 mM Tris-HCl pH 7.5, 150 mM NaCl, 0.1 mM MgCl2, 1 mM TCEP, 0.005% Tween20) and mixed with 1:2000 Streptavidin-d2 diluted in PPI-Terbium detection buffer (CisBio 61DB10RDF). 50× compound in DMSO was mixed with 16 nM KRAS-acceptor solution and incubated for 30 minutes at room temperature. After compound pre-incubation with KRAS, the RAF1 donor solution was added to the KRAS-acceptor solution and incubated for 1 hour at room temperature. The fluorescence signal emitted was monitored at 665 nm and 615 nm using an Envision multimode plate reader. The HTRF ratio (665/615) was calculated and normalized to 0% inhibition in the absence of compound and 100% inhibition in the presence of untagged RAF1 protein. […]
Background: In TR-FRET formats the signal depends on donor and acceptor labels being close together.

The target of assay [3] is T3, wtKRAS/RAF1 (Homo sapiens, UniProt P01116).
T3 construct: KRAS (1-169) proteins were expressed in E. coli at 18° C; His6-MBP (N, cleaved yes); made in house; host or cells: E. coli
Put plainly: Protein-protein interaction (PPI) HTRF assay w.t.KRAS/RAF1. How it is done:
as §1, §2, §3

Assay [4] deals with T4, wtNRAS/RAF1 (Homo sapiens, UniProt P01111).
T4 construct: (1-169); His6-SUMO (N, cleaved yes); made in house; host or cells: E. coli (printed for the KRAS and RAF1 constructs; not explicitly for NRAS)
Put plainly: Protein-protein interaction (PPI) HTRF assay w.t.NRAS/RAF1. How it is done:
as §1, §2, §3

T1 sequence (P01116 1-169 isoform P01116-2 G12D): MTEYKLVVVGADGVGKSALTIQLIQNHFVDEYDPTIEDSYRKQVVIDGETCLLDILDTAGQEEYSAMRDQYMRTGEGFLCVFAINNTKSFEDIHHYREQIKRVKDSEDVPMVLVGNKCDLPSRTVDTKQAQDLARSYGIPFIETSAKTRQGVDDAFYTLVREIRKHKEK
T3 sequence (P01116 1-169 isoform P01116-2): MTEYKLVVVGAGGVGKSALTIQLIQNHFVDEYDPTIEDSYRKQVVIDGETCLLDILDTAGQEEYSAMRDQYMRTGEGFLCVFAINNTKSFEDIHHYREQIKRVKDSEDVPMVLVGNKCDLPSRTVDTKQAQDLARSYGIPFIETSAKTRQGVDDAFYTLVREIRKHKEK
T4 sequence (P01111 1-169): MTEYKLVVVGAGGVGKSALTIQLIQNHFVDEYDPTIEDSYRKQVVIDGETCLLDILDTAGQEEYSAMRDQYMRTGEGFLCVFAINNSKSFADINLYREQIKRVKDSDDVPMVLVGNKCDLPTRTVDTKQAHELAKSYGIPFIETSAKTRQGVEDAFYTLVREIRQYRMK
T2 sequence (P01116 1-169 isoform P01116-2 G12V): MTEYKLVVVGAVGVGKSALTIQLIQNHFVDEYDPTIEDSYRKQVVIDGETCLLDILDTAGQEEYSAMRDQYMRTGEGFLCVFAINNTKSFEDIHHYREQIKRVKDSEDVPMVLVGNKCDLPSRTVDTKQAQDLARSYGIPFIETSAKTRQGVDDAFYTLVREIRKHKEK

`CN(C)C(=O)c1nn2c(c1Cl)CN(c1nc(OC[C@@]34CCCN3C[C@H](F)C4)nc3c1CN(C)[C@@]1(CCc4ccccc41)C3)CCC2` [Compound 53, 3-chloro-5-[(7S)-2-[[(2R,8S)-2-fluoro-1,2,3,5,6,7-hexahydropyrrolizin-8-yl]methoxy]-6-methyl-spiro[5,8-dihydropyrido[4,3-d]pyrimidine-7,1′-indane]-4-yl]-N,N-dimethyl-4,6,7,8-tetrahydropyrazolo[1,5-a][1,4]diazepine-2-carboxamide]: the IC50 was 10 to 100 µM in assay [1], 10 to 100 µM in assay [2], 10 to 100 µM in assay [3] and greater than 100 µM in assay [4].
`CN(C)C(=O)c1nn2c(c1Cl)CN(c1nc(OC[C@@]34CCCN3C[C@H](F)C4)nc3c1CN(C)[C@@]1(CCCc4ccccc41)C3)CCC2` [Compound 64, 3-chloro-5-[(7S)-2-[[(2R,8S)-2-fluoro-1,2,3,5,6,7-hexahydropyrrolizin-8-yl]methoxy]-6-methyl-spiro[5,8-dihydropyrido[4,3-d]pyrimidine-7,1′-tetralin]-4-yl]-N,N-dimethyl-4,6,7,8-tetrahydropyrazolo[1,5-a][1,4]diazepine-2-carboxamide]: the IC50 in assay [1] is 10 to 100 µM; in assay [2], 10 to 100 µM; in assay [4], greater than 100 µM.
In the case of `C#Cc1c(C(=O)N(C)C)nn2c1CN(c1nc(OC[C@@]34CCCN3C[C@H](F)C4)nc3c1CN(C)[C@@]1(CCCc4ccccc41)C3)CCC2` [Compound 81, 3-ethynyl-5-[(7S)-2-[[(2R,8S)-2-fluoro-1,2,3,5,6,7-hexahydropyrrolizin-8-yl]methoxy]-6-methyl-spiro[5,8-dihydropyrido[4,3-d]pyrimidine-7,1′-tetralin]-4-yl]-N,N-dimethyl-4,6,7,8-tetrahydropyrazolo[1,5-a][1,4]diazepine-2-carboxamide], the IC50 in assay [1] is 10 to 100 µM; in assay [2] it was 10 to 100 µM; in assay [3], 10 to 100 µM; in assay [4], greater than 100 µM.
Regarding `Cc1nnc(-c2nn3c(c2Cl)CN(c2nc(OC[C@@]45CCCN4C[C@H](F)C5)nc4c2CN(C)[C@@]2(CCCc5ccccc52)C4)CCC3)n1C` [Compound 90, (7S)-4-[3-chloro-2-(4,5-dimethyl-1,2,4-triazol-3-yl)-4,6,7,8-tetrahydropyrazolo[1,5-a][1,4]diazepin-5-yl]-2-[[(2R,8S)-2-fluoro-1,2,3,5,6,7-hexahydropyrrolizin-8-yl]methoxy]-6-methyl-spiro[5,8-dihydropyrido[4,3-d]pyrimidine-7,1′-tetralin]], the IC50 in assay [1] was 10 to 100 µM; in assay [2], 10 to 100 µM; in assay [3], greater than 100 µM; in assay [4] it was greater than 100 µM.
As for `CN(C)C(=O)c1nn2c(c1Cl)CN(c1nc(OC[C@@]34CCCN3C[C@H](F)C4)nc3c1CN(C)[C@@]1(CCc4cccc(O)c41)C3)CCC2` [Compound 96, 3-chloro-5-[(7S)-2-[[(2R,8S)-2-fluoro-1,2,3,5,6,7-hexahydropyrrolizin-8-yl]methoxy]-7′-hydroxy-6-methyl-spiro[5,8-dihydropyrido[4,3-d]pyrimidine-7,1′-indane]-4-yl]-N,N-dimethyl-4,6,7,8-tetrahydropyrazolo[1,5-a][1,4]diazepine-2-carboxamide], the IC50 in assay [1] was 10 to 100 µM; in assay [2], 10 to 100 µM; in assay [3], greater than 100 µM; in assay [4], greater than 100 µM.

The term IC50 denotes the midpoint of a concentration-inhibition curve. A higher IC50 goes with weaker potency.
